pEC50: −log10 of the molar value.
How the values were obtained:
[1] = tested on: Chikungunya virus; assay: Antiviral activity against Chikungunya virus Indian Ocean strain 899 infected in African green monkey Vero cells assessed as inhibition of viral-induced cytopathic effect measured on day 5 post infection by MTS/PMS assay; assay type: functional, organism-based, Indian Ocean 899; settings: for pEC50 / EC90: Chikungunya virus, Indian Ocean 899, Vero, 120 h
[2] = Cytotoxicity against African green monkey Vero cells by MTS/PMS assay; assay type: cell-based; settings: chlorocebus sabaeus
[3] = Selectivity index, ratio of CC50 for African green monkey Vero cells to EC50 for Chikungunya virus Indian Ocean strain 899 infected in African green monkey Vero cells; assay type: toxicity; settings: read-out: Ratio CC50/EC50
[4] = tested on: Chikungunya virus; assay: Antiviral activity against Chikungunya virus Indian Ocean strain 899 infected in African green monkey Vero cells assessed as inhibition of viral-induced cytopathic effect by measuring concentration required for maximum activity measured on day 5 post infection by MTS/PMS assay; assay type: functional, Indian Ocean 899

Q: Which Imax [1] does the source give for `Cc1ccc(-c2cn(CCc3ccccc3)nn2)cc1` here?
A: The Imax was 74%.

Q: And the pEC50 [1]?
A: Its pEC50 is 3.91.

Q: And the CC50 [2]?
A: Its CC50 is 200 µM.

Q: What about the selectivity ratio [3] of the same compound?
A: The selectivity ratio was 1.6.

Q: And the Activity [4]?
A: Its Activity is 163 µM.

Q: For `CC(C)(C)c1ccc(C(=O)CC(=O)N/N=C/c2ccc(O)cc2)cc1`, which Imax [1] is on record?
A: Its Imax is 87%.

Q: And the pEC50 [1]?
A: The pEC50 was 5.14.

Q: What about the EC90 [1] of the same compound?
A: Its EC90 is 8 µM.

Q: And the CC50 [2]?
A: The CC50 was 14.7 µM.

Q: What about the selectivity ratio [3] of the same compound?
A: Its selectivity ratio is 2.3.

Q: What about the Activity [4] of the same compound?
A: Its Activity is 7.9 µM.

Q: For `CC(C)(C)c1ccc(/C=C/NC(=O)N/N=C/c2ccc(O)cc2)cc1`, which Imax [1] is on record?
A: The Imax was 89%.

Q: And the pEC50 [1]?
A: The pEC50 was 5.25.

Q: What about the EC90 [1] of the same compound?
A: Its EC90 is 7.5 µM.

Q: What about the CC50 [2] of the same compound?
A: The CC50 was 10.4 µM.

Q: What about the selectivity ratio [3] of the same compound?
A: Its selectivity ratio is 1.9.

Q: What about the Activity [4] of the same compound?
A: The Activity was 7.4 µM.

Q: Which Imax [1] does the source give for `Cc1ccc(-c2[nH]c3ccccc3c2/C=N/NC(=S)NCCc2ccccc2)cc1` here?
A: The Imax was 100%.

Q: What about the pEC50 [1] of the same compound?
A: Its pEC50 is 5.74.

Q: And the EC90 [1]?
A: Its EC90 is 2.5 µM.

Q: And the CC50 [2]?
A: Its CC50 is 7.8 µM.

Q: What about the selectivity ratio [3] of the same compound?
A: Its selectivity ratio is 4.4.

Q: And the Activity [4]?
A: Its Activity is 2.5 µM.

Q: What does the source list for `Oc1ccc(/C=N/NC(=S)NCCc2ccccc2)cc1`?
A: Imax [1]: 67%; pEC50 [1]: 4.32; CC50 [2]: 87.8 µM; selectivity ratio [3]: 1.8; Activity [4]: 51 µM

Q: With `Cc1ccc(/C=N/NC(=O)N/C=C/c2ccc(C(C)(C)C)cc2)cc1` as the compound, how does the Imax [1] read?
A: Its Imax is 50%.

Q: What about the pEC50 [1] of the same compound?
A: Its pEC50 is 3.61.

Q: And the EC90 [1]?
A: Its EC90 is greater than 298 µM.

Q: And the CC50 [2]?
A: Its CC50 is 192 µM.

Q: And the selectivity ratio [3]?
A: The selectivity ratio was 0.8.

Q: What about the Activity [4] of the same compound?
A: Its Activity is 187 µM.

Q: What does the source list for `CCOc1ccc(/C=N/NC(=O)/C=C/c2ccc(C(F)(F)F)cc2)cc1OCC`?
A: Imax [1]: 75%; pEC50 [1]: 4.31; CC50 [2]: 84.1 µM; selectivity ratio [3]: 1.7; Activity [4]: 69 µM

Q: With `CCOc1ccc(-c2nnc(CCc3ccc(C(C)(C)C)cc3)o2)cc1OCC` as the compound, how does the Imax [1] read?
A: The Imax was 61%.

Q: And the pEC50 [1]?
A: Its pEC50 is 4.91.

Q: And the CC50 [2]?
A: Its CC50 is 15.5 µM.

Q: What about the selectivity ratio [3] of the same compound?
A: Its selectivity ratio is 1.2.

Q: And the Activity [4]?
A: The Activity was 13.5 µM.

Q: Which Imax [1] does the source give for `C/C(=N\NC(=O)N/C=C/c1ccc(C(C)(C)C)cc1)c1ccc(C2CCCCC2)cc1` here?
A: The Imax was 90%.

Q: And the pEC50 [1]?
A: Its pEC50 is 4.37.

Q: And the EC90 [1]?
A: The EC90 was 78.8 µM.

Q: What about the CC50 [2] of the same compound?
A: Its CC50 is 123 µM.

Q: And the selectivity ratio [3]?
A: Its selectivity ratio is 2.9.

Q: And the Activity [4]?
A: The Activity was 79 µM.

Q: Which results are given for `Cc1ccc(/C=N/NC(=O)/C=C/c2ccc(C(C)C)cc2)cc1`?
A: Imax [1]: 50%; pEC50 [1]: 4.59; CC50 [2]: 25 µM; selectivity ratio [3]: 1; Activity [4]: 20 µM

Q: For `C/C(=N\NC(=S)NCCc1ccccc1)c1ccc(C2CCCCC2)cc1`, which Imax [1] is on record?
A: Its Imax is 90%.

Q: And the pEC50 [1]?
A: The pEC50 was 5.37.

Q: What about the EC90 [1] of the same compound?
A: Its EC90 is 5.9 µM.

Q: And the CC50 [2]?
A: The CC50 was 52.9 µM.

Q: What about the selectivity ratio [3] of the same compound?
A: The selectivity ratio was 12.2.

Q: And the Activity [4]?
A: Its Activity is 6 µM.

Q: With `C/C(=N\NC(=O)c1nc2ccccc2[nH]1)c1ccc(C2CCCCC2)cc1` as the compound, how does the Imax [1] read?
A: The Imax was 83%.

Q: And the pEC50 [1]?
A: The pEC50 was 5.59.

Q: And the CC50 [2]?
A: Its CC50 is 6.2 µM.

Q: What about the selectivity ratio [3] of the same compound?
A: The selectivity ratio was 2.4.

Q: What about the Activity [4] of the same compound?
A: Its Activity is 4.3 µM.

Q: What does the source list for `Cc1ccc(/C=N/NC(=O)/C=C/c2ccc(C(F)(F)F)cc2)cc1`?
A: Imax [1]: 61%; pEC50 [1]: 4.02; EC90 [1]: > 150 µM; CC50 [2]: 203 µM; selectivity ratio [3]: 2.1; Activity [4]: 99 µM

Q: Which Imax [1] does the source give for `CC(C)(C)c1ccc(CCc2nnc(-c3ccc(O)cc3)o2)cc1` here?
A: The Imax was 69%.

Q: What about the pEC50 [1] of the same compound?
A: The pEC50 was 3.97.

Q: What about the EC90 [1] of the same compound?
A: Its EC90 is greater than 103 µM.

Q: What about the CC50 [2] of the same compound?
A: The CC50 was 191 µM.

Q: What about the selectivity ratio [3] of the same compound?
A: The selectivity ratio was 1.8.

Q: What about the Activity [4] of the same compound?
A: Its Activity is 103 µM.

— ChEMBL document CHEMBL4196052, “Rational modifications on a benzylidene-acrylohydrazide antiviral scaffold, synthesis and evaluation of bioactivity against Chikungunya virus” (Eur J Med Chem, 2018)
